Results reported in EP3383875B1, “3-PYRIMIDINYL PYRROLO [2,3-B] PYRIDINE AS ANTICANCER AGENTS AND THE PROCESS FOR THE PREPARATION THEREOF” (Council Of Scientific & Industrial Research, priority 2015, dated 2017).
Read-outs that look alike come from different tables or passages of the source.

Tests used:
[1] = molecular target: CDK-2/cyclin A (Homo sapiens, UniProt P24941); assay: CDK inhibition assay, CDK-2/cyclin A against Histone HI, 33P-ATP; format: biochemical; conditions: at 500 nM
Description: Compounds were evaluated for their ability to inhibit CDK2 and CDK9 as given below.
CDK-2/cyclin A (5-20 mU diluted in 50 mM Hepes pH 7.5, 1 mM DTT, 0.02% Brij35, 100 mM NaCl) was assayed against Histone HI in a final volume of 25.5 µl containing 50 mM Hepes pH7.5, 1 mM DTT, 0.02% Brij35, 100 mM NaCl, Histone HI (1 mg/ml), 10 mM magnesium acetate and 0.02 mM [33P-g-ATP](500-1000 cpm/pmole) and incubated for 30 min at room temperature. Assays were stopped by addition of 5 µl of 0.5 M (3%) orthophosphoric acid and then harvested onto P81 Unifilter plates with a wash buffer of 50 mM orthophosphoric acid.

[2] = molecular target: CDK-9/Cyclin T1 (Homo sapiens, UniProt P50750); assay: CDK inhibition assay, CDK-9/Cyclin T1 against substrate peptide, 33P-ATP; format: biochemical; conditions: at 500 nM
Description: (50-1000 cpm/pmole) and incubated for 30 min at room temperature. Assays were stopped by addition of 5 µl of 0.5 M (3%) orthophosphoric acid and then harvested onto P81 Unifilter plates with a wash buffer of 50 mM orthophosphoric acid.

[3] = Table-6, read-out: In vitro CDK2 % of inhibition
[4] = read-out: inhibition against CDK2
[5] = Table-6, read-out: In vitro CDK9 % of inhibition
[6] = read-out: inhibition against CDK9
[7] = Table-7, read-out: In vitro CDK2 % of inhibition
[8] = Table-7, read-out: In vitro CDK9 % of inhibition

Sequence of CDK-9/Cyclin T1 (P50750 whole entry): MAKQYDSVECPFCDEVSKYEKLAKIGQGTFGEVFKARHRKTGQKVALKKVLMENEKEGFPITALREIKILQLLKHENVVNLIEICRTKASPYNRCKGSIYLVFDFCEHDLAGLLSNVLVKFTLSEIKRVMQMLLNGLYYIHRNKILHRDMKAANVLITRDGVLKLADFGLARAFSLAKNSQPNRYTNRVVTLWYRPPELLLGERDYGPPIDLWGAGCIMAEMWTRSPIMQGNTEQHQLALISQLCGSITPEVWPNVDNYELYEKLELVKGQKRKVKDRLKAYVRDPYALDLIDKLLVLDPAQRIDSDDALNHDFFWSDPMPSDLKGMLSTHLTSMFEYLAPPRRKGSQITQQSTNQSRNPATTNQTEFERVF
Sequence of CDK-9/Cyclin T1 (O60563 whole entry partner): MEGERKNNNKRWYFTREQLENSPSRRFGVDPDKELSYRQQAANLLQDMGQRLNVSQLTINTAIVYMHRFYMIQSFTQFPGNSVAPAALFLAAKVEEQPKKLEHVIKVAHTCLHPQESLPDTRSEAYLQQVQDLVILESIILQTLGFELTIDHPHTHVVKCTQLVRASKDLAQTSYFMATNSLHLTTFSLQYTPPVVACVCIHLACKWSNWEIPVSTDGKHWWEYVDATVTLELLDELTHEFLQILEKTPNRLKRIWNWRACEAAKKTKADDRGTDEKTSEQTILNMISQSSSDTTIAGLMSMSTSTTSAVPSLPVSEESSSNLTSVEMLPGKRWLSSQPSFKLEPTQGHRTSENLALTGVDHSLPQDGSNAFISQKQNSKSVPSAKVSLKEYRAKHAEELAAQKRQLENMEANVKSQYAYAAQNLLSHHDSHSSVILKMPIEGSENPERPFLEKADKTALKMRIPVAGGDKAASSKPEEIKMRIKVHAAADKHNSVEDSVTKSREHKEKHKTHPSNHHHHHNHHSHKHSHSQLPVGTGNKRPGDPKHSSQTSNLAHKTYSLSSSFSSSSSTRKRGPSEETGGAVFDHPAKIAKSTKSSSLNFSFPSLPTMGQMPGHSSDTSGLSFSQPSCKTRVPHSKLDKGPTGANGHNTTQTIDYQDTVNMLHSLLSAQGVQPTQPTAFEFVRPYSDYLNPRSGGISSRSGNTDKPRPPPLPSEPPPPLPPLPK

| SMILES | inhibition at 0.5 µM [1, 3] [%] | inhibition at 0.5 µM [1, 4] [%] | inhibition at 0.5 µM [2, 5] [%] | inhibition at 0.5 µM [2, 6] [%] | inhibition at 0.5 µM [1, 7] [%] | inhibition at 0.5 µM [2, 8] [%] |
| --- | --- | --- | --- | --- | --- | --- |
| CCc1ccccc1-c1cnc2[nH]cc(-c3ccnc(NC4CC4)n3)c2c1 [1A10, N-cyclopropyl-4-(5-(2-ethylphenyl)-1H-pyrrolo[2,3-b]pyridin-3-yl)pyrimidin-2-amine] | > 70 | > 70 | > 70 | > 70 | – | – |
| c1ccc(CCNc2nccc(-c3c[nH]c4ncc(-c5cc6ccccc6s5)cc34)n2)cc1 [1B18, 4-(5-(benzo[b]thiophen-2-yl)-1H-pyrrolo[2,3-b]pyridin-3-yl)-N-phenethylpyrimidin-2-amine] | – | > 50 | – | > 50 | > 50 | > 50 |
| FC(F)(F)c1cccc(-c2cnc3[nH]cc(-c4ccnc(NCCc5ccccc5)n4)c3c2)c1 [1B4, N-phenethyl-4-(5-(3-(trifluoromethyl)phenyl)-1H-pyrrolo[2,3-b]pyridin-3-yl)pyrimidin-2-amine] | – | > 70 | – | > 70 | > 70 | > 70 |
| COc1ccc2[nH]c(-c3cnc4[nH]cc(-c5ccnc(NC6CCCCCC6)n5)c4c3)cc2c1 [1A57, N-cycloheptyl-4-(5-(5-methoxy-1H-indol-2-yl)-1H-pyrrolo[2,3-b]pyridin-3-yl)pyrimidin-2-amine] | – | > 70 | – | > 70 | > 70 | > 70 |
| Cc1ccc(-c2cnc3[nH]cc(-c4ccnc(NCCc5ccccc5)n4)c3c2)cc1 [1B6, N-phenethyl-4-(5-(p-tolyl)-1H-pyrrolo[2,3-b]pyridin-3-yl)pyrimidin-2-amine] | – | > 70 | – | > 70 | > 70 | > 70 |
| Clc1ccc(-c2cnc3[nH]cc(-c4ccnc(NC5CCCC5)n4)c3c2)cc1 [1A32, 4-(5-(4-chlorophenyl)-1H-pyrrolo [2,3-b]pyridin-3-yl)-N-cyclopentylpyrimidin-2-amine] | > 50 | > 50 | > 50 | > 50 | – | – |
| Cc1cccc(-c2cnc3[nH]cc(-c4ccnc(NCCc5ccccc5)n4)c3c2)c1 [1B7, N-phenethyl-4-(5-(m-tolyl)-1H-pyrrolo[2,3-b]pyridin-3-yl)pyrimidin-2-amine] | – | > 70 | – | > 70 | > 70 | > 70 |
| c1ccc(CCNc2nccc(-c3c[nH]c4ncc(-c5nccc6ccccc56)cc34)n2)cc1 [1B20, 4-(5-(isoquinolin-1-yl)-1H-pyrrolo[2,3-b]pyridin-3-yl)-N-phenethylpyrimidin-2-amine] | – | > 50 | – | > 50 | > 50 | > 50 |
| CCc1ccccc1-c1cnc2[nH]cc(-c3ccnc(NCCc4ccccc4)n3)c2c1 [1B10, 4-(5-(2-ethylphenyl)-1H-pyrrolo[2,3-b]pyridin-3-yl)-N-phenethylpyrimidin-2-amine] | – | > 50 | – | > 50 | > 50 | > 50 |
| c1ccc2[nH]c(-c3cnc4[nH]cc(-c5ccnc(NC6CCCC6)n5)c4c3)cc2c1 [1A39, 4-(5-(1H-indol-2-yl)-1H-pyrrolo[2,3-b]pyridin-3-yl)-N-cyclopentylpyrimidin-2-amine] | > 50 | > 50 | > 50 | > 50 | – | – |
| Cc1cccc(-c2cnc3[nH]cc(-c4ccnc(NC5CC5)n4)c3c2)c1 [1A7, N-cyclopropyl-4-(5-(m-tolyl)-1H-pyrrolo[2,3-b]pyridin-3-yl)pyrimidin-2-amine] | > 70 | > 70 | > 70 | > 70 | – | – |
| Cc1cccc(-c2cnc3[nH]cc(-c4ccnc(NC5CCCC5)n4)c3c2)c1 [1A27, N-cyclopentyl-4-(5-(m-tolyl)-1H-pyrrolo[2,3-b]pyridin-3-yl)pyrimidin-2-amine] | > 50 | > 50 | > 50 | > 50 | – | – |
| CSc1ccccc1-c1cnc2[nH]cc(-c3ccnc(NC4CCCCCC4)n3)c2c1 [1A49, N-cycloheptyl-4-(5-(2-(methylthio)phenyl)-1H-pyrrolo[2,3-b]pyridin-3-yl)pyrimidin-2-amine] | – | – | – | – | < 50 | < 50 |
| CSc1ccccc1-c1cnc2[nH]cc(-c3ccnc(NC4CC4)n3)c2c1 [1A9, N-cyclopropyl-4-(5-(2-(methylthio)phenyl)-1H-pyrrolo[2,3-b]pyridin-3-yl)pyrimidin-2-amine] | > 70 | > 70 | > 70 | > 70 | – | – |
